Source: US4472387A, “Pharmaceutical compositions capable of increasing cerebral serotonin concentration” (Panmedica S.A., priority 1981, dated 1984)
Where a name gives a salt, the structure may show the parent alone.

Key:
[1] = tested on: cerebral metabolism of serotonin; test: Percent increase in cerebral endogenic level of 5-HTP, 5-HT and 5-HIAA in the rat after intragastric administration; format: in vivo; details: 1 hour
Experimental: This study, carried out in the rat, determined the efficacy of the compositions according to the present invention on the cerebral metabolism of serotonin and established the potentiation of the serotoninogenic effect with respect to the reference (L)-5-HTP. (Purine, pyrimidine, and pyridine bases are, of themselves, entirely devoid of this activity.)
The animals were male adult rats of the OFA stain weighing 160 to 180 g. They were subjected to an alternating light cycle of 12 hours of light and 12 hours of darkness.
The various derivatives according to the invention were administered in distilled water intragastically at doses of 10, 25, and 50 mg/kg. After one hour, the rats were decapitated; and the contents of 5-hydroxytryptamine (5-HT), of 5-HIAA, and of 5-hydroxytryptophane in the brains were determined by the methods published by G. Curzon and Cool, [Brit. J. Pharmaco., 39, 653 (1970)].
They represent the percentage increase of cerebral endogenic levels at 10, 25, 50 mg/kg of the pure (L)-5-HTP (control) and of compositions according to the present invention for a given batch of control rats.

[2] = tested on: blood levels of 5-HTP and 5-hydroxyindolacetic acid (5-HIAA); test: Clinical results: blood levels of 5-HTP and 5-HIAA; format: in vivo; details: for blood levels of 5-HTP / blood levels of 5-hydroxyindolacetic acid (5-HIAA): clinical results; for blood levels of 5-hydroxyindolacetic acid (5-HIAA): principal metabolite of serotonin
Source text: In interpreting the clinical results of these remarkable medicaments, the applicants have observed that a complex of inosine with 5-HTP, particularly a complex of inosine with (L)-5-HTP, triples the blood levels of 5-HTP and 5-hydroxyindolacetic acid (5-HIAA), the principal metabolite of serotonin.

mice = test: Toxicity, LD50 per os/mice; format: in vivo
Source text: (§1) The toxicities of the salts and the complexes of 5-HTP according to the present invention are very low as witnessed by the LD50 's per os/mice assembled in Table 2 below: […]

cerebral serotonin = details: 5-HTP alone; cited from earlier work
[3] = prolonged administration of high doses; cited from earlier work
[4] = Toxicity, LD50 per os/mice; format: in vivo; details: mouse, in vivo, po, mice
Source text: as §1

[5] = tested on: receptors of benzodiazepines; details: P. Skolnick, 1979; cited from earlier work

| Compound | Percent increase in cerebral endogenic level of 5-HIAA ([1]; 10 mg/kg) | Percent increase in cerebral endogenic level of 5-HT ([1]; 10 mg/kg) | Percent increase in cerebral endogenic level of 5-Ht + 5-HIAA ([1]; 10 mg/kg) | Percent increase in cerebral endogenic level of (L)-5-HTP ([1]; 10 mg/kg) | Percent increase in cerebral endogenic level of 5-HIAA ([1]; 25 mg/kg) | Percent increase in cerebral endogenic level of 5-HT ([1]; 25 mg/kg) | Percent increase in cerebral endogenic level of 5-Ht + 5-HIAA ([1]; 25 mg/kg) | Percent increase in cerebral endogenic level of (L)-5-HTP ([1]; 25 mg/kg) | Percent increase in cerebral endogenic level of 5-HIAA ([1]; 50 mg/kg) | Percent increase in cerebral endogenic level of 5-HT ([1]; 50 mg/kg) | Percent increase in cerebral endogenic level of 5-Ht + 5-HIAA ([1]; 50 mg/kg) | Percent increase in cerebral endogenic level of (L)-5-HTP ([1]; 50 mg/kg) | other results |
| --- | --- | --- | --- | --- | --- | --- | --- | --- | --- | --- | --- | --- | --- |
| NC(Cc1c[nH]c2ccc(O)cc12)C(=O)O.O.O=c1[nH]cnc2c1ncn2[C@@H]1O[C@H](CO)[C@@H](O)[C@H]1O (racemic) [Example 2, (DL) 5-HYDROXYTRYPTOPHANE INOSINATE] | 135% | 2% | 85% | 110% | 345% | 80% | 220% | 1665% | 1190% | 110% | 700% | 1955% |  |
| N[C@H](Cc1c[nH]c2ccc(O)cc12)C(=O)O [(D)-5-HTP, reference compound] |  |  |  |  |  |  |  |  |  |  |  |  | activity ([2]; pharmacological response): almost entire absence of activity |
| N[C@@H](Cc1c[nH]c2ccc(O)cc12)C(=O)O [(L)-5-HTP pure, (L)-5-hydroxytryptophane, reference compound] | 40% | 10% | 55% | 120% | 110% | 25% | 110% | 260% | 300% | 35% | 180% | 650% |  |
| N[C@@H](Cc1c[nH]c2ccc(O)cc12)C(=O)O.O.O=c1[nH]cnc2c1ncn2[C@@H]1O[C@H](CO)[C@@H](O)[C@H]1O [Example 1, (L)-5-HTP INOSINATE] | 165% | 2% | 100% | 135% | 290% | 100% | 195% | 1755% | 1010% | 70% | 545% | 2665% | blood levels of 5-HTP [2]: triples; blood levels of 5-hydroxyindolacetic acid (5-HIAA) [2]: triples |
| N[C@@H](Cc1c[nH]c2ccc(O)cc12)C(=O)O [Example 4, THEOPHYLLINE SALT OF (L)-5-HYDROXYTRYPTOPHANE] | 85% |  | 75% | 55% | 270% | 25% | 150% | 1200% | 870% | 35% | 490% | 1710% | LD50 per os (mice): 1000 mg/kg; solubility (Aqueous solubility; water): 3500 µg/mL |
| N[C@@H](Cc1c[nH]c2ccc(O)cc12)C(=O)O [Example 5-HTP, 5-hydroxytryptophane] |  |  |  |  |  |  |  |  |  |  |  |  | decarboxylation at the peripheral level (cerebral serotonin): considerable decarboxylation; hepatic catabolism (cerebral serotonin): high hepatic catabolism; overall yield of cerebral serotonin synthesized with respect to the amount of 5-hydroxytryptophane administered (cerebral serotonin): very low; passage of the gastrointestinal and hematoencephalic barriers (cerebral serotonin): mediocre passage; renal lesions [3]: often results in renal lesions |
| Cc1ncc(CO)c(CO)c1O.Cl.N[C@@H](Cc1c[nH]c2ccc(O)cc12)C(=O)O [Example 7, EQUIMOLECULAR COMPLEX OF PYRIDOXINE WITH (L)-5-HYDROXYTRYPTOPHANE] | 35% | 20% | 40% | 190% | 230% | 80% | 165% | 420% | 755% | 25% | 390% | 2500% |  |
| N[C@@H](Cc1c[nH]c2ccc(O)cc12)C(=O)O [Example 10, NI[…] OF (L)-5-HYDROXYTRYPTOPHANE] |  |  |  |  |  |  |  |  |  |  |  |  | LD50 [4]: > 2000 mg/kg |
| N[C@@H](Cc1c[nH]c2ccc(O)cc12)C(=O)O [Example 12, CAFFEINE SALT OF (L)-5-HYDROXYTRYPTOPHANE] |  |  |  |  |  |  |  |  |  |  |  |  | LD50 per os (mice): > 2000 mg/kg |
| NC(Cc1c[nH]c2ccc(O)cc12)C(=O)O.O=c1[nH]cnc2c1ncn2C1OC(CO)C(O)C1O (stereo not shown) [complex of inosine with 5-HTP] |  |  |  |  |  |  |  |  |  |  |  |  | blood levels of 5-HTP [2]: triples; blood levels of 5-hydroxyindolacetic acid (5-HIAA) [2]: triples |
| O=c1[nH]cnc2nc[nH]c12 [hypoxanthine, 1,7-dihydropurine-6-one] |  |  |  |  |  |  |  |  |  |  |  |  | endogenous ligands of receptors of benzodiazepines [5]: can constitute endogenous ligands of receptors of benzodiazepines |
| O=c1[nH]cnc2c1ncn2[C@@H]1O[C@H](CO)[C@@H](O)[C@H]1O [inosine, 9-β-D-ribofuranosylhypoxanthine] |  |  |  |  |  |  |  |  |  |  |  |  | endogenous ligands of receptors of benzodiazepines [5]: can constitute endogenous ligands of receptors of benzodiazepines |
| EQU[…] OF (L)-5-HYDROXYT[…] OF ALLOPURINOL [Example 5] | 90% | 15% | 60% | 108% | 100% | 70% | 85% | 830% | 765% | 115% | 475% | 2100% | LD50 per os (mice): 1000 mg/kg |
| EQU[…] OF […] (DL)-5-HYDROXYTRYPTOPHANE [Example 6] | 20% |  | 8% | 115% | 90% | 30% | 65% | 230% | 360% | 60% | 210% | 1575% | solubility in water (Aqueous solubility; in words): very soluble in water |
